According to patent US20250228795A1, “ESTROGENIC COMPOUNDS AND METHODS OF USE” (laterion, Inc., priority 2022, published 2025):

Experiments:
[1] = tested on: MCF-7 breast cancer cells; assay: MCF-7 cell proliferation (viable cell counts), CC7 and six analogs; format: cell-based
Method: In order for long term menopausal hormone therapy to be a viable alternative to currently available therapeutic options it must not promote breast cancer. […] MCF-7 cells were incubated for 24 hr in the presence of medium (control), 1 nM […], or 5 μM of each of the compounds depicted in FIG. 4 (CC7 and six analogs, A9, A10, A11, A13, A15, and A20). Viable cell counts were determined by flow cytometry.
(§1) MCF-7 cells were plated at a density of 50,000 cells per well in 6-well tissue culture plates in DMEM/F12 supplemented with 5% stripped FBS. […] The cells were then detached with trypsin, neutralized with media containing 5% FBS, and resuspended. Appropriate amounts of cell suspension were placed in ISOTON II diluent (Thermo Fisher Scientific, Waltham, MA, USA) and the cell numbers were then measured using a Coulter Counter (Beckman, Brea, CA, USA).
(§2) Flow cytometry was performed based on a previously described method (Pan et al. 2016). Briefly, the cells were plated at a density of 500,000 cells per well in 6-well tissue culture dishes in DMEM/F-12 supplemented with 5% stripped FBS for 48 h. The cultured medium was then replaced by serum-free DMEM/F12 for 24 h. […] The culture medium was then aspirated, and the cells were washed with PBS, detached with trypsin and collected by centrifugation at 1700 rpm for 5 min. The cell pellets were washed with ice cold PBS followed by centrifugation at 1700 rpm for 10 min at room temperature. The cell pellets were resuspended in 500 μL PBS containing 50 μg/mL propidium iodide, 0.1% of triton X-100, 0.1% of sodium citrate, and 10 μg/mL of RNase. The cell suspensions were then analyzed with a BD LSR II Flow Cytometer (BD Biosciences, San Jose, CA, USA) in the Flow Cytometry facility at University of California, Berkeley and the percentage of cells in cell cycle phases were determined by using FlowJo 7.6.5 (FlowJo, LLC, Ashland, OR, USA).

KRT19 = assay: Gene expression assay (real-time PCR) in U2OS-ERα cells: KRT19; format: cell-based, Human; conditions: in combination with E2, U2OS-ERα cells, FIG. 5
Method: (§3) Human U2OS (osteosarcoma) cells expressing a tetracycline-regulated ERα (U2OS-ERα) were prepared, characterized, and maintained as previously described (Tee et al., 2004). The cells were maintained in phenol red-free Gibco DMEM/F-12 (Thermo Fisher Scientific, Waltham, MA, USA) supplemented with 5% charcoal-dextran stripped fetal bovine serum (FBS, Gemini Bio Products, West Sacramento, CA, USA), 100 units/mL penicillin and streptomycin, 50 μg/mL Fungizone, and 2 mM of glutamine. To maintain stable transfected cells, 50 μg/mL hygromycin B and 500 μg/mL of zeocin (Invitrogen, Waltham, MA, USA) were included in culture media.

FGR = assay: Gene expression assay (real-time PCR) in U2OS-ERα cells: reprogrammed gene FGR; format: cell-based, Human; conditions: FIG. 5
Method: as §3

[2] = tested on: MCF-7 breast cancer cells; assay: MCF-7 cell proliferation (viable cell counts), A9 and its four analogs; format: cell-based
Method: Viable cell counts were determined by flow cytometry.
as §1, with “USA)” for “USA).”
as §2

ERα [3] = molecular target: T1, ERα (Homo sapiens, UniProt P03372); assay: Luciferase activity in ERE-TK-Luc/ERα-transfected Ishikawa cells; format: cell-based; set-up: expressed in transfected cells; host or cells: Ishikawa cells; conditions: FIG. 6
T1 sequence (P03372 1-595): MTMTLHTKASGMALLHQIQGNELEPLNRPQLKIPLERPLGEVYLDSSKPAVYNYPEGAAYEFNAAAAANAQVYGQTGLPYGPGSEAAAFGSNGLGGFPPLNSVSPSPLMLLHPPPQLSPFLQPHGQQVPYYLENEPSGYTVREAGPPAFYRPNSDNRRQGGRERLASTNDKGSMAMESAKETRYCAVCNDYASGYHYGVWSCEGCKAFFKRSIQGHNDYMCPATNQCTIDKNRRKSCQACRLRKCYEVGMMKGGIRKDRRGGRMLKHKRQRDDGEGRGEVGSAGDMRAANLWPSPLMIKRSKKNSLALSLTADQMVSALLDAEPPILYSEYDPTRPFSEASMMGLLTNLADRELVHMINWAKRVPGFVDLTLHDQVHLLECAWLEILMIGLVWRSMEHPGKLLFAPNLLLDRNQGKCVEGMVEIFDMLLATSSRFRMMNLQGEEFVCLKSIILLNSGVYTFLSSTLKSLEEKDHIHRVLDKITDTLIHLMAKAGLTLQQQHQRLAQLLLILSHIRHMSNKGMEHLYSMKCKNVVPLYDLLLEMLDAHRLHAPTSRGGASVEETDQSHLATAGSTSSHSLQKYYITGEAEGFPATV

ERα [4] = molecular target: T1, ERα; assay: Luciferase assay of A9 analogs in doxycycline-dependent U2OS cells (ER-TK-Luc or NKG2E-TK-Luc); format: cell-based; set-up: expressed in transfected cells; host or cells: doxycycline-dependent U2OS cells; conditions: in combination with E2; ER-TK-Luc (FIG. 9) and NKG2E-TK-Luc (FIG. 10); compared with A9R1-A9R4
Method: Luciferase Assay of A9 analogs. In order to better understand the structure-activity relationship of analogs of A9, the analogs A9R1, A9R2, A9R3, and A9R4 were prepared. See structures on FIG. 8. […] Luciferase activity results are shown in FIG. 9 (ER-TK-Luc) and FIG. 10 (NKG2E-TK-Luc).

ERβ = molecular target: T2, ERβ (Homo sapiens, UniProt Q92731); assay: Luciferase activity in NKG2E-TK-Luc-transfected U2OS-ERβ cells with doxycycline; format: cell-based; conditions: in combination with E2, doxycycline, FIG. 7
T2 construct: expressed in transfected cells; host or cells: doxycycline-dependent U2OS cells
Method: Luciferase Activity in NKG2E-TK-Luc-Transfected U2OS-ERβ Cells with Doxycycline. […] Luciferase activity for each of the compounds was recorded.

[5] = compound (5 μM) in combination with E2, FIG. 4
[6] = compound (5 μM) in combination with E2, FIG. 11
[7] = compound alone (1 nM E2 or 5 μM compound), FIG. 11
[8] = in combination with E2, Ishikawa cells

T2 sequence (Q92731 whole entry): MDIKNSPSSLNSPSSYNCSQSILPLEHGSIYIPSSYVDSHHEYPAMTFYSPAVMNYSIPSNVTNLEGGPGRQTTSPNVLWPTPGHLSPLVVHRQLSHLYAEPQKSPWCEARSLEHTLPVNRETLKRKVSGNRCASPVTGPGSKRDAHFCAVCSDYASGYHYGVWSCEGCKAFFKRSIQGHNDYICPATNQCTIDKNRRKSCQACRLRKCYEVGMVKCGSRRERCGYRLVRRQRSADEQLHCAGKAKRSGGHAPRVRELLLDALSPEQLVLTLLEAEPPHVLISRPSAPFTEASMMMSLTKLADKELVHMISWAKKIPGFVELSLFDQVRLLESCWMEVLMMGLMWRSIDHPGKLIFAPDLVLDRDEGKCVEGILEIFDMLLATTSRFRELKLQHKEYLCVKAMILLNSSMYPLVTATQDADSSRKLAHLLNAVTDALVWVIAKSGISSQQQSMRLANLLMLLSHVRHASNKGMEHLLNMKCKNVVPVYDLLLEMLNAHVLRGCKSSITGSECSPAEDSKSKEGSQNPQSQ

SMILES | MCF-7 viable cell count / proliferation [1, 5] | MCF-7 viable cell count / proliferation [2, 6] | luciferase activity (NKG2E-TK-Luc), ERβ activity (ERβ) | further results
O=C(/C=C/c1ccccc1)c1ccc(O)c(O)c1O [CC7, 2′,3′,4′-trihydroxychalcone, reference compound] | well below the cell counts for E2 alone | well below the control |  | MCF-7 viable cell count / proliferation ([1]; compound alone (1 nM E2 or 5 μM compound), FIG. 4): well below the cell counts for E2 alone; KRT19 expression (KRT19): large synergistic effect; FGR expression (FGR; compound by itself, U2OS-ERα cells): not by either compound by itself; FGR expression (FGR; in combination with E2, U2OS-ERα cells): activated by the combination of E2 and CC7 only; MCF-7 viable cell count / proliferation [2, 7]: well below the cell counts for E2 alone; luciferase activity (ERE-TK-Luc) (ERα [3]; compound alone, Ishikawa cells): no effect; luciferase activity (ERE-TK-Luc) (ERα [3]; [8]): demonstrated synergism with E2
O=C(/C=C/c1ccccn1)c1ccc(O)c(O)c1O [Example A9, (E)-3-(pyridin-2-yl)-1-(2,3,4-trihydroxyphenyl)prop-2-en-1-one] | well below the control | well below the control |  | MCF-7 viable cell count / proliferation [2, 7]: well below the cell counts for E2 alone; luciferase activity (ERE-TK-Luc) (ERα [3]; compound alone, Ishikawa cells): no effect; luciferase activity (ERE-TK-Luc) (ERα [3]; [8]): demonstrated synergism with E2; luciferase activity, synergistic effect with E2 (ERα [4]): greatest synergistic effect with E2
O=C(/C=C/c1ccccn1)c1ccc(O)cc1 [Example A9R1, (E)-1-(4-hydroxyphenyl)-3-(pyridin-2-yl)prop-2-en-1-one] |  | well below the control |  | 
Cc1cc(O)ccc1C(=O)/C=C/c1ccccn1 [Example A9R2, (E)-1-(4-hydroxy-2-methylphenyl)-3-(pyridin-2-yl)prop-2-en-1-one] |  | well below the control |  | 
O=C(/C=C/c1ccccn1)c1ccc(O)cc1O [Example A9R4, (E)-1-(2,4-dihydroxyphenyl)-3-(pyridin-2-yl)prop-2-en-1-one] |  | well below the control |  | 
O=C(/C=C/c1cccc(O)c1)c1ccc(O)c(O)c1O [Example A10, (E)-3-(3-hydroxyphenyl)-1-(2,3,4-trihydroxyphenyl)prop-2-en-1-one] | well below the cell counts for E2 alone |  | exceptional ERβ activity | 
O=C(/C=C/c1ccc(O)cc1)c1ccc(O)cc1 [Example A13, (E)-1,3-bis(4-hydroxyphenyl)prop-2-en-1-one] |  |  | exceptional ERβ activity | 
O=C(/C=C/c1ccc(O)cc1)c1ccc(O)c(O)c1 [Example A14, (E)-1-(3,4-dihydroxyphenyl)-3-(4-hydroxyphenyl)prop-2-en-1-one] |  |  | exceptional ERβ activity | 
O=C(/C=C/c1ccc(O)cc1)c1ccccc1 [Example A15, (E)-3-(4-hydroxyphenyl)-1-phenylprop-2-en-1-one] |  |  | exceptional ERβ activity | 
